Experiments:
[1] = Evaluation of oral bioavailability by mouse bioassay; type: in vivo; details: 10 mg/kg oral, female Balb/C mice, serum 15 minutes after administration, read-out: Blood level
Protocol: A test compound was suspended or dissolved in a proper administration medium to give a concentration of 1 mg/ml. To 7 to 9 week old female Balb/C mice, 10 mg/kg of the resulting suspension or solution was orally administered. Fifteen minutes after the administration, blood was collected from the postcava under anesthesia with ether and the serum was separated from it. The concentration of each test compound was determined by estimating the serum level from a calibration curve obtained with VCAM-1/VLA-4 inhibitory activity as an index or measuring the concentration by using LC/MS/MS.

[2] = target: T1, integrins haα4 and β1 (VLA-4) expressed on CHO cells (Homo sapiens, UniProt P05556+P13612); test: In vitro Evaluation Test (1): binding of Eu3+-hVCAM-1 D1D7-IgG to CHO cells expressing integrins α4 and β1; details: inhibition of Eu3+-hVCAM-1 D1D7-IgG binding to CHO cells expressing α4β1; Ki calculated from IC50
T1 construct: expressed in transfected cells; host or cells: CHO cells
Outline: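 CHO cells transduced with human α4 and β1 were grown for 2 days. They were incubated 1 h at room temperature with Eu3+-hVCAM-1 D1D7-IgG (diluted to 2 nM before addition) and compound, with or without 6% HSA, in HEPES pH 7.5 containing Ca2+, Mg2+ and 4 mM Mn2+. Time-resolved fluorescence gave IC50; Ki used a Scatchard-derived Kd (0.06–20 nM).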

T1 sequence (P13612 34-1032): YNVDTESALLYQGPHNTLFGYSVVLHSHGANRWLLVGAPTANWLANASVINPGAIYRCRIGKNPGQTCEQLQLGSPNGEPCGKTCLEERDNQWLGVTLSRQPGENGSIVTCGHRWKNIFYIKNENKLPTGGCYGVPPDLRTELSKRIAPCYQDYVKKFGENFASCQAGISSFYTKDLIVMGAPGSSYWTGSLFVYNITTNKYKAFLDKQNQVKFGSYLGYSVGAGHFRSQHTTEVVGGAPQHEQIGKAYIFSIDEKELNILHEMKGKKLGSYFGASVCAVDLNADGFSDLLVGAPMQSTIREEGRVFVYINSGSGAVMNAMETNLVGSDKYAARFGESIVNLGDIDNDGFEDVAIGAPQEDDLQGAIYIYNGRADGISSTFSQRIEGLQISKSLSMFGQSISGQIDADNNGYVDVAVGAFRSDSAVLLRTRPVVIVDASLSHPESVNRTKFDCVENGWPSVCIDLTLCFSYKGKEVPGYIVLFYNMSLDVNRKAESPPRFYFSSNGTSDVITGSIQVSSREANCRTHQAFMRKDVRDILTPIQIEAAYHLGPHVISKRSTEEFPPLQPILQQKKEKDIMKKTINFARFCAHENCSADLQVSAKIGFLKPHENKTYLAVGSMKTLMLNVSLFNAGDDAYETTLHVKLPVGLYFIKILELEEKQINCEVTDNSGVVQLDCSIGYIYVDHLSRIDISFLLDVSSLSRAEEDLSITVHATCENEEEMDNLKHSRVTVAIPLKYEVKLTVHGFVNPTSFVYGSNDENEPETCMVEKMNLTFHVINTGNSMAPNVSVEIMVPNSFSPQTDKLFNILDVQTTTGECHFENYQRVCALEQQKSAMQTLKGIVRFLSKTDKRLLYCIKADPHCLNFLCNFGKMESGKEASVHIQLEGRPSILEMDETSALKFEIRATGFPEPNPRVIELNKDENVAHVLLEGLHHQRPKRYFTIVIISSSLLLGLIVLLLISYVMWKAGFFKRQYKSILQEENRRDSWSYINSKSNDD
T1 sequence (P05556 21-798): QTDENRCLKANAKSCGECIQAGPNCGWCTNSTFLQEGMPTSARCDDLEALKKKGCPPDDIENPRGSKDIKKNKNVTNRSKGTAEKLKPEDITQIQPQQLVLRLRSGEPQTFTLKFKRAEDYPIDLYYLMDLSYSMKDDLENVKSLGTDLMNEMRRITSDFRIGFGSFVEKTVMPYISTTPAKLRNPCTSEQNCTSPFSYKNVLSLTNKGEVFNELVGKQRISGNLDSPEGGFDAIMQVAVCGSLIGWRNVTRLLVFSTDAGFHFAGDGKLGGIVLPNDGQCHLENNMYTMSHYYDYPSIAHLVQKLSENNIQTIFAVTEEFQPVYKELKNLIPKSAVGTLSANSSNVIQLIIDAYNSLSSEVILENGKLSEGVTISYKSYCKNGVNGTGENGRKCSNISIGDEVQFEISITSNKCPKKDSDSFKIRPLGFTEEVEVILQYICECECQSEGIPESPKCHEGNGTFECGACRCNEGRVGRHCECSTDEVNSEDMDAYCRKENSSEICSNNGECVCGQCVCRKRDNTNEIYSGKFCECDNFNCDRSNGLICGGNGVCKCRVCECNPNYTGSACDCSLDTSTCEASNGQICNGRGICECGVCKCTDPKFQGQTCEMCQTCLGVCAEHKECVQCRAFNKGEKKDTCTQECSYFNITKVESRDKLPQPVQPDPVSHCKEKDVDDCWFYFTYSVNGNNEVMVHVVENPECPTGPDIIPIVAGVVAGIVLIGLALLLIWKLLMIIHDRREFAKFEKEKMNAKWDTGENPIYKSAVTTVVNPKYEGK

Row | Compound | concentration at 15 min [1] [ng/mL] | Ki [2] [nM]
1 | O=C(O)C1CCC(OC[C@@H]2C[C@H](F)CN2C(=O)Cc2ccc3nc(Nc4ccccc4Cl)oc3c2)CC1 (single isomer, unassigned) [24 (Isomer A)] | 2180 | 14
2 | O=C(O)C1CCC(OC[C@@H]2C[C@H](F)CN2C(=O)Cc2ccc3nc(Nc4ccccc4Br)oc3c2)CC1 (single isomer, unassigned) [25 (Isomer A)] | 1090 | 18
3 | O=C(O)C1CCC(OC[C@@H]2C[C@H](F)CN2C(=O)Cc2ccc(NC(=O)N3CCc4ccccc43)c(Cl)c2)CC1 (stereo partly drawn) [Example 36, 4-(1-(3-Chloro-4-(1-indolinylcarbonylamino)phenylacetyl)-(4S)-fluoro-(2S)-pyrrolidinylmethoxy)cyclohexanecarboxylic acid] | 1100 | 1.5
4 | O=C(O)C1CCC(OC[C@@H]2C[C@H](F)CN2C(=O)Cc2ccc3nc(Nc4ccccc4Cl)oc3c2F)CC1 (stereo partly drawn) [Example 37, 4-(1-(2-(2-Chlorophenyl)amino-7-fluoro-6-benzoxazolylacetyl)-(4S)-fluoro-(2S)-pyrrolidinylmethoxy)cyclohexanecarboxylic acid] | 3690 | 6.9
5 | Cn1cc(C(=O)Nc2ccc(CC(=O)N3C[C@@H](F)C[C@H]3COC3CCC(C(=O)O)CC3)cc2Cl)c2ccccc21 (stereo partly drawn) [Example 39, 4-(1-(3-Chloro-4-(1-methyl-3-indolylcarbonylamino)phenylacetyl)-(4S)-fluoro-(2S)-pyrrolidinylmethoxy)cyclohexanecarboxylic acid] | 5160 | 2.1
6 | Cc1ccc(Cl)cc1Nc1nc2ccc(CC(=O)N3C[C@@H](F)C[C@H]3CO[C@H]3CC[C@H](C(=O)O)CC3)c(F)c2o1 [Example 43, trans-4-(1-((2-(5-Chloro-2-methylphenylamino)-7-fluoro-6-benzoxazolyl)acetyl)-(4S)-fluoro-(2S)-pyrrolidinylmethoxy)cyclohexanecarboxylic acid] | 1190 | 6
7 | Cc1ccc(F)cc1Nc1nc2ccc(CC(=O)N3C[C@@H](F)C[C@H]3CO[C@H]3CC[C@H](C(=O)O)CC3)c(F)c2o1 [Example 44, trans-4-(1-((2-(5-Fluoro-2-methylphenylamino)-7-fluoro-6-benzoxazolyl)acetyl)-(4S)-fluoro-(2S)-pyrrolidinylmethoxy)cyclohexanecarboxylic acid] | 912 | 2
8 | O=C(Cc1ccc(Nc2nc3ccccc3o2)c(Cl)c1)N1C[C@@H](F)C[C@H]1CO[C@H]1CC[C@H](C(=O)O)CC1 [Example 49, trans-4-(1-(4-(2-benzoxazolyl)amino-3-chlorophenylacetyl)-(4S)-fluoro-(2S)-pyrrolidinylmethoxy)cyclohexanecarboxylic acid] | 508 | 4.4
9 | O=C(Cc1cc(Cl)c(Nc2nc3ccccc3o2)cc1F)N1C[C@@H](F)C[C@H]1CO[C@H]1CC[C@H](C(=O)O)CC1 [Example 55, trans-4-(1-(4-(2-Benzoxazolyl)amino-5-chloro-2-fluorophenylacetyl)-(4S)-fluoro-(2S)-pyrrolidinylmethoxy)cyclohexanecarboxylic acid] | 2030 | 8.5
10 | O=C(Cc1cc(Cl)c(Nc2nc3ccccc3s2)cc1F)N1C[C@@H](F)C[C@H]1CO[C@H]1CC[C@H](C(=O)O)CC1 [Example 61, trans-4-(1-(4-(2-Benzothiazolyl)amino-5-chloro-2-fluorophenylacetyl)-(4S)-fluoro-(2S)-pyrrolidinylmethoxy)cyclohexanecarboxylic acid] | 3320 | 2.3
11 | O=C(Cc1ccc(Nc2nc3cc(F)ccc3s2)c(Cl)c1)N1C[C@@H](F)C[C@H]1CO[C@H]1CC[C@H](C(=O)O)CC1 [Example 62, trans-4-(1-(3-Chloro-4-(5-fluoro-2-benzothiazolyl)aminophenylacetyl)-(4S)-fluoro-(2)-pyrrolidinylmethoxy)cyclohexanecarboxylic acid] | 3200 | 3.4
12 | O=C(Cc1cc(Cl)c(Nc2nc3cc(F)ccc3s2)cc1F)N1C[C@@H](F)C[C@H]1CO[C@H]1CC[C@H](C(=O)O)CC1 [Example 63, trans-4-(1-(5-Chloro-4-(5-fluoro-2-benzothiazolyl)amino-2-fluorophenylacetyl)-(4S)-fluoro-(2S)-pyrrolidinylmethoxy)cyclohexanecarboxylic acid] | 8550 | 3.1
13 | CC(=O)N(C)[C@H]1C[C@@H](CO[C@H]2CC[C@H](C(=O)O)CC2)N(C(=O)Cc2cc(Cl)c(NC(=O)c3cn(C)c4ccccc34)cc2F)C1 [Example 142, trans-4-(1-((5-Chloro-2-fluoro-4-(1-methyl-3-indolylcarbonylamino)phenyl)acetyl)-(4S)-(N-methylacetamido)-(2S)-pyrrolidinylmethoxy)-1-cyclohexanecarboxylic acid] |  | 18
14 | C[C@@H](CO[C@H]1CC[C@H](C(=O)O)CC1)N(C)C(=O)Cc1cc(Cl)c(NC(=O)c2cn(C)c3ccccc23)cc1F [Example 144, trans-4-((2S)-((5-Chloro-2-fluoro-4-(1-methyl-3-indolylcarbonylamino)phenyl)-N-methylacetamido)-1-propoxy)-1-cyclohexanecarboxylic acid] |  | 48
15 | Cc1ccc(F)cc1Nc1nc2ccc(CC(=O)N(C)[C@@H](C)CO[C@H]3CC[C@H](C(=O)O)CC3)c(F)c2o1 [Example 145, trans-4-((2S)-((7-Fluoro-2-((5-fluoro-2-methylphenyl)amino)-6-benzoxazolyl)-N-methylacetamido)-1-propoxy)-1-cyclohexanecarboxylic acid] |  | 18
16 | Cc1ccc(F)cc1Nc1nc2ccc(CC(=O)N3C[C@@H](F)C[C@H]3COc3ccc(C(=O)O)cc3)cc2o1 [Example 146, 4-(1-((2-(5-Fluoro-2-methylphenylamino)-6-benzoxazolyl)acetyl)-(4S)-fluoro-(2S)-pyrrolidinylmethoxy)benzoic acid] |  | 21

More lines, now with the values ahead:

Row | concentration at 15 min [1] [ng/mL] | Ki [2] [nM] | Compound
17 |  | 40 | Cn1cc(C(=O)Nc2ccc(CC(=O)N3C[C@@H](F)C[C@H]3COc3ccc(C(=O)O)cc3)cc2Cl)c2ccccc21 [Example 147, 4-(1-((3-Chloro-4-((1-methyl-3-indolylcarbonyl)amino)phenyl)acetyl)-(4S)-fluoro-(2S)-pyrrolidinylmethoxy)benzoic acid]
18 |  | 10 | Cn1cc(C(=O)Nc2ccc(CC(=O)N3C[C@@H](F)C[C@H]3COc3ccc(C(=O)O)cn3)cc2Cl)c2ccccc21 [Example 150, 6-(1-(3-Chloro-4-(1-methyl-3-indolyl)carbonylaminophenylacetyl)-(4S)-fluoro-(2S)-pyrrolidinylmethoxy)nicotinic acid]
19 |  | 37 | Cc1ccccc1Nc1nc2ccc(CC(=O)N3CC=C[C@H]3COc3ccc(C(=O)O)cc3)cc2o1 [Example 151, 4-(3,4-Dehydro-1-((2-(2-methylphenylamino)-6-benzoxazolyl)acetyl)-(2S)-pyrrolidinylmethoxy)benzoic acid]
20 |  | 43 | COC[C@@H]1C[C@@H](O[C@H]2CC[C@H](C(=O)O)CC2)CN1C(=O)Cc1ccc2nc(Nc3cc(F)ccc3C)oc2c1F [Example 156, trans-4-(1-((2-(5-Fluoro-2-methylphenylamino)-7-fluoro-6-benzoxazolyl)acetyl)-(2S)-methoxymethyl-(4R)-pyrrolidinyloxy)cyclohexanecarboxylic acid]
21 |  | 47 | COC[C@@H]1C[C@@H](Oc2ccc(C(=O)O)cc2)CN1C(=O)Cc1ccc2nc(Nc3cc(F)ccc3C)oc2c1F [Example 159, 4-(1-((2-(5-Fluoro-2-methylphenylamino)-7-fluoro-6-benzoxazolyl)acetyl)-(2S)-methoxymethyl-(4R)-pyrrolidinyloxy)benzoic acid]
22 |  | 61 | Cc1ccc(F)cc1Nc1nc2ccc(CC(=O)N3CC[C@@H](O[C@H]4CC[C@H](C(=O)O)CC4)C3)c(F)c2o1 [Example 160, 4-(1-(2-(5-Fluoro-2-methylphenylamino)-7-fluoro-6-benzoxazolylacetyl)-(3R)-pyrrolidinyloxy)cyclohexanecarboxylic acid]
23 |  | 39 | Cn1cc(C(=O)Nc2cc(F)c(CC(=O)N3CC[C@@H](CO[C@H]4CC[C@H](C(=O)O)CC4)C3)cc2Cl)c2ccccc21 [Example 163, trans-4-(1-(5-Chloro-2-fluoro-4-(1-methyl-3-indolyl)carbonylaminophenylacetyl)-(3R)-pyrrolidinylmethyloxy)cyclohexanecarboxylic acid]
24 |  | 0.87 | COC[C@@H]1CC[C@@H](CO[C@H]2CC[C@H](C(=O)O)CC2)N1C(=O)Cc1ccc2nc(Nc3cc(F)ccc3C)oc2c1F [Example 167, trans-4-(1-((2-(5-Fluoro-2-methylphenylamino)-7-fluoro-6-benzoxazolyl)acetyl)-(5S)-methoxymethyl-(2S)-pyrrolidinylmethoxy)cyclohexanecarboxylic acid]
25 |  | 59 | COC[C@@H]1CC[C@@H](CO[C@H]2CC[C@H](C(=O)O)CC2)N1C(=O)Cc1cc(Cl)c(NC(=O)c2nn(C)c3ccccc23)cc1F [Example 168, trans-4-(1-((5-Chloro-2-fluoro-4-((1-methyl-3-indazolyl)carbonyl)aminophenyl)acetyl)-(5S)-methoxymethyl-(2S)-pyrrolidinylmethoxy)cyclohexanecarboxylic acid]

— US7157487B2, “Vla-4 inhibitors” (Daiichi Pharmaceutical Co., Ltd., priority 2000, dated 2007)
